Source: ChEMBL document CHEMBL5625183, “Discovery of a novel dual-target inhibitor of CDK12 and PARP1 that induces synthetic lethality for treatment of triple-negative breast cancer” (Eur J Med Chem, 2023)
Activity calls are given as the source filed them. The rule behind the calls is not given here.

Columns and labels:
[1] = Toxicity in BALB/c mouse xenografted with human MDA-MB-231 cells assessed as morphological changes in heart at 20 to 80 mg/kg, ip administered once daily for 16 days by H and E staining based analysis; type: organism-based; details: in vivo, 384 h, dose 20-80 mg/kg, time 16 day
[2] = Half life in Sprague-Dawley rat 1 mg/kg, iv measured upto 24 hrs by LC-MS/MS analysis; type: ADME, organism-based; details: in vivo
[3] = target: Cyclin-dependent kinase 5 (Homo sapiens, UniProt Q00535); experiment: Inhibition of CDK5 (unknown origin)
Chain of Cyclin-dependent kinase 5 (Q00535 whole entry): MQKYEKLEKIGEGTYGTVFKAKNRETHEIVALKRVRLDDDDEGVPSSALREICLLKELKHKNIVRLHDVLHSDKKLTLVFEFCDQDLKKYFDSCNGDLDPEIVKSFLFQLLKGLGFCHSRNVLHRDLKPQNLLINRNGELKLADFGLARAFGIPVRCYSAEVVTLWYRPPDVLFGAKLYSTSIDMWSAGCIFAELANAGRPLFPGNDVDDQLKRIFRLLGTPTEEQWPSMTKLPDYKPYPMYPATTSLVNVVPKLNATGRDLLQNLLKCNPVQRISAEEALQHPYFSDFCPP

[4] = target: Cyclin-dependent kinase 12 (Homo sapiens, UniProt Q9NYV4); experiment: Inhibition of CDK12 in human MDA-MB-231 cells assessed as effect on Pol II CTD at ser5 residue phosphorylation incubated for 24 hrs; type: cell-based; details: dose 5-20 µM
Chain of Cyclin-dependent kinase 12 (Q9NYV4 whole entry, looked up): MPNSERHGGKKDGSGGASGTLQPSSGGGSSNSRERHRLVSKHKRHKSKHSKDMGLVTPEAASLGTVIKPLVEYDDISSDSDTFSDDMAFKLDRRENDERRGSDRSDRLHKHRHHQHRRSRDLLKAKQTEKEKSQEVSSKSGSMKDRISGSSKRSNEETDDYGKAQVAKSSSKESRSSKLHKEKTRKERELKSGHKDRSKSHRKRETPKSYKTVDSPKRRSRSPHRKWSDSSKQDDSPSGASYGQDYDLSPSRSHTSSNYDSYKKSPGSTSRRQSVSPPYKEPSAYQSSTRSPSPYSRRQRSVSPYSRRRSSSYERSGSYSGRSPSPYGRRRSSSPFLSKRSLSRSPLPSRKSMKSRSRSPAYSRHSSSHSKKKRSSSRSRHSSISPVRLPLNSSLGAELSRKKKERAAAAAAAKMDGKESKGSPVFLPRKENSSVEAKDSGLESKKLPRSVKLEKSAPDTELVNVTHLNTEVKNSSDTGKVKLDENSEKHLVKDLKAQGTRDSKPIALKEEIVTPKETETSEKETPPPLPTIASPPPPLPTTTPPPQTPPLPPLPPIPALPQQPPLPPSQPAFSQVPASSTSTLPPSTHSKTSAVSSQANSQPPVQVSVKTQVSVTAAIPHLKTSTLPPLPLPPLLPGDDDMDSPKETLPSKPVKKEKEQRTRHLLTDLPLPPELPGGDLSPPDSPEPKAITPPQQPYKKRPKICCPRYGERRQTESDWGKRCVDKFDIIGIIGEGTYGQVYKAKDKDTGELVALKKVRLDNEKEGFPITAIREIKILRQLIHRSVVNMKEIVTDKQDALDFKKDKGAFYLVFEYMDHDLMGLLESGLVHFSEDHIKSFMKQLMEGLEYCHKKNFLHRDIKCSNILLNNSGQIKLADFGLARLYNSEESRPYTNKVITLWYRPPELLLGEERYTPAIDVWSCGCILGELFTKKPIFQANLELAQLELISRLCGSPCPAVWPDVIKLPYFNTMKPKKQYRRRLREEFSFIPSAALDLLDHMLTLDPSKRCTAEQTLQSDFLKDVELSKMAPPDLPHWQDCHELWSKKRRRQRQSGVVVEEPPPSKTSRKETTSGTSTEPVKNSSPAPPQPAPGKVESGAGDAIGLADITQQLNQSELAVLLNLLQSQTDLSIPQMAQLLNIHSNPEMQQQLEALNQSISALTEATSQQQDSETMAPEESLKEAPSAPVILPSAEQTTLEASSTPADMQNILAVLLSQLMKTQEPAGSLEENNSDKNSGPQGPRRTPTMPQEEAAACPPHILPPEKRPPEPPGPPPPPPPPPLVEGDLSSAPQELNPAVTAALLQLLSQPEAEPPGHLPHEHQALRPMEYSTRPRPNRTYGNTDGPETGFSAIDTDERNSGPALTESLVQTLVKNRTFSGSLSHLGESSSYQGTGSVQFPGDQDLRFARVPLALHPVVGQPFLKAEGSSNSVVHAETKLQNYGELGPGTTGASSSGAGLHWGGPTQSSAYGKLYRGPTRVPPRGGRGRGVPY

[5] = tested on: MDA-MB-231; experiment: Upregulation of gamma-H2AX expression in human MDA-MB-231 cells incubated for 24 hrs by Western blot analysis; type: functional, cell-based; details: dose <= 20.0 µM
[6] = tested on: MDA-MB-436; experiment: Upregulation of gamma-H2AX expression in human MDA-MB-436 cells incubated for 24 hrs by Western blot analysis; type: functional, cell-based; details: dose <= 20.0 µM
[7] = tested on: MDA-MB-468; experiment: […] DNA repair in human MDA-MB-468 cells assessed as decrease in RAD51 level at 10 uM incubated for 24 hrs by confocal laser scanning microscopic analysis; type: functional, cell-based
[8] = tested on: MDA-MB-231; experiment: […] DNA repair in human MDA-MB-231 cells assessed as […] formation at 10 uM incubated for 24 hrs by confocal laser scanning microscopic analysis; type: functional, cell-based
[9] = tested on: MDA-MB-231; experiment: Induction of cell cycle arrest in human MDA-MB-231 cells assessed as accumulation of cells at S phase at 5 uM measured after 24 hrs by PI staining based cytometry analysis (reference value: 23.01 %); type: functional
[10] = tested on: MDA-MB-436; experiment: Induction of cell cycle arrest in human MDA-MB-436 cells assessed as accumulation of cells at G1 phase at 20 uM measured after 24 hrs by PI staining based cytometry analysis (reference value: 72.04%); type: functional
[11] = tested on: MCF-10A; experiment: Cytotoxicity against human MCF-10A cells assessed reduction in cell viability incubated for 24 hrs by MTT assay; type: toxicity, cell-based
[12] = tested on: MDA-MB-231; experiment: Inhibition of cell migration in human MDA-MB-231 cells at 10 uM incubated for 24 hrs by transwell assay; type: functional, cell-based
[13] = tested on: MDA-MB-468; experiment: Induction of apoptosis in human MDA-MB-468 cells assessed as upregulation of cleaved-caspase 3 expression incubated for 24 hrs; type: functional, cell-based; details: dose 5-20 µM
[14] = Toxicity in BALB/c mouse xenografted with human MDA-MB-231 cells assessed as morphological changes in kidney at 20 to 80 mg/kg, ip administered once daily for 16 days by H and E staining based analysis; type: organism-based; details: in vivo, 384 h, dose 20-80 mg/kg, time 16 day
[15] = tested on: MDA-MB-231; experiment: Antitumor activity against human MDA-MB-231 cells xenografted in ip dosed BALB/c mouse assessed as downregulation of MMP-2 level administered once daily for 16 days; type: functional, organism-based; details: dose 20-80 mg/kg, time 16.0 day

- half-life [2]: 180 min
- IC50 [3]: 747 nM
- inhibition [4]: Dose-Dependent Effect
SMILES: NC(=O)c1cccc2[nH]c(NC(=O)c3cccc(C(=O)N4CCC(Nc5ncc(I)cn5)CC4)c3)nc12
- Activity [1]: Non-Toxic
- Activity [5]: Dose-Dependent Effect
- Activity [6]: Dose-Dependent Effect
- Activity [7]: Active
- Activity [8]: Active
- Activity [9]: 19.81%
- Activity [10]: 63.76%
- Activity [11]: Non-Toxic
- inhibition [12]: Active
- Activity [13]: Dose-Dependent Effect
- Activity [14]: Non-Toxic
- Activity [15]: Active
